For this test, the target named is rat MCH-1 (Rattus norvegicus, UniProt P97639). Kind of test: Radioligand binding assay at cloned rat MCH1 receptor ([3H] Compound A). Also on record: host or cells: Peak rapid 293 (Peakr293) cells, transient calcium phosphate transfection, membranes. The following applies: cloned rat MCH1 receptor; 0.08 nM [3H] Compound A; Peakr293 cell membranes; read-out: Ki (nM) rMCH1.
Sequence of rat MCH-1 (P97639 whole entry): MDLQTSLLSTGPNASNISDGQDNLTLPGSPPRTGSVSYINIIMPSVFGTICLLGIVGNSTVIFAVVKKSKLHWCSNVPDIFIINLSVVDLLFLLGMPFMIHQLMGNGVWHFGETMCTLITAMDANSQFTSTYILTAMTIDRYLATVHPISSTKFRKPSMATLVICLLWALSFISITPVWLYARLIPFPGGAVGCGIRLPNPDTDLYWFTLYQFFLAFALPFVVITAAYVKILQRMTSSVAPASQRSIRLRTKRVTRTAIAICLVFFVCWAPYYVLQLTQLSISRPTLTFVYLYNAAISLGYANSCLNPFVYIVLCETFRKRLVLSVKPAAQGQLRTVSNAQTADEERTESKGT
For the compound `CC(C)C(=O)Nc1cccc(C2CCN(CCCNC(=O)c3cccnc3Oc3ccc(Cl)cc3)CC2)c1` [Example 641], the Ki is 14.2 nM.
The result for `CC(C)C(=O)Nc1cccc(C2CCN(CCCNC(=O)c3ccc(Oc4cc(Cl)cc(Cl)c4)o3)CC2)c1` [Example 642] reads 8.3 nM.
For `CC(C)C(=O)Nc1cccc(C2CCN(CCCNS(=O)(=O)c3ccccc3F)CC2)c1` [Example 643], the Ki is 130 nM.
For `Cc1noc(C)c1S(=O)(=O)NCCCN1CCC(c2cccc(NC(=O)C(C)C)c2)CC1` [Example 644] the value was 196 nM.
As for `CC(C)C(=O)Nc1cccc(C2CCN(CCCNS(=O)(=O)c3ccc(C(C)(C)C)cc3)CC2)c1` [Example 645], the Ki came out at 85.3 nM.
For `CC(C)C(=O)Nc1cccc(C2CCN(CCCCCCN)CC2)c1` [Example 646] the value was 236 nM.
`CC(C)C(=O)Nc1cccc(C2CCN(CCNC(=O)Nc3ccc(-c4ccccc4)cc3)CC2)c1` [Example 647]: the Ki is 81.6 nM.
As for `CC(C)C(=O)Nc1cccc(C2CCN(CCNC(=O)c3coc(Oc4cc(Cl)cc(Cl)c4)c3)CC2)c1` [Example 648], the Ki was 13.4 nM.
Regarding `CC(C)C(=O)Nc1cccc(C2CCN(CCNC(=O)C(c3ccccc3)c3ccccc3)CC2)c1` [Example 649], the Ki came to 1.7 nM.
The result for `CC(C)C(=O)Nc1cccc(C2CCN(CCNC(=O)c3ccc4ccccc4c3)CC2)c1` [Example 650] reads 21.1 nM; that for `Cc1onc(-c2c(Cl)cccc2Cl)c1C(=O)NCCCCN1CCC(c2cccc(NC(=O)C(C)C)c2)CC1` [Example 651], 16.7 nM.
As for `CC(C)C(=O)Nc1cccc(C2CCN(CCCCNC(=O)C(c3ccccc3)c3ccccc3)CC2)c1` [Example 653], the Ki was 48.8 nM.
In the case of `CC(C)C(=O)Nc1cccc(C2CCN(CCCCCNC(=O)C(c3ccccc3)c3ccccc3)CC2)c1` [Example 654], the Ki is 43.6 nM.
As for `CC(C)C(=O)Nc1cccc(C2CCN(CCCCNC(=O)c3cc(Cl)cc(Cl)c3)CC2)c1` [Example 655], the inhibitory constant (Ki) was 31.1 nM.
The result for `CC(C)C(=O)Nc1cccc(C2CCN(CCCCNC(=O)c3ccc(Oc4cc(Cl)cc(Cl)c4)o3)CC2)c1` [Example 656] reads 49.7 nM; that for `CC(C)C(=O)Nc1cccc(C2CCN(CCCCNC(=O)c3cccc(Cl)c3)CC2)c1` [Example 657], 77.9 nM.
On to `CC(C)C(=O)Nc1cccc(C2CCN(CCCCNC(=O)c3ccc(F)c(F)c3)CC2)c1` [Example 658], for which the Ki was 12 nM.
For `CC(C)C(=O)Nc1cccc(C2CCN(CCCCNC(=O)Nc3cc(Cl)cc(Cl)c3)CC2)c1` [Example 659], the Ki stood at 40.2 nM.
Consider `CC(C)C(=O)Nc1cccc(C2CCN(CCCCNC(=O)Nc3ccc(-c4ccccc4)cc3)CC2)c1` [Example 660], for which the Ki worked out at 129 nM.
The result for `CC(C)C(=O)Nc1cccc(C2CCN(CCCCC(=O)c3ccc([N+](=O)[O-])cc3)CC2)c1` [Example 661] reads 33.3 nM; that for `CC(C)C(=O)Nc1cccc(C2CCN(CCCCC(=O)c3ccc(F)cc3)CC2)c1` [Example 662], 50.3 nM.
For `CC(C)C(=O)Nc1cccc(C2CCN(CCCCC(=O)c3ccccc3C(F)(F)F)CC2)c1` [Example 663] the value was 73.4 nM; for `CC(C)C(=O)Nc1cccc(C2CCN(CCCCC(=O)c3cccc(Br)c3)CC2)c1` [Example 664], 21.9 nM.
The result for `CC(C)C(=O)Nc1cccc(C2CCN(CCCCC(=O)c3cccc(Cl)c3)CC2)c1` [Example 666] reads 21.9 nM.
As for `CC(C)C(=O)Nc1cccc(C2CCN(CCCCC(=O)c3ccc(Br)cc3)CC2)c1` [Example 667], the Ki is 43.9 nM.
Regarding `CC(C)C(=O)Nc1cccc(C2CCN(CCCCC(=O)c3ccccc3I)CC2)c1` [Example 668], the Ki worked out at 25.8 nM.
`CC(C)C(=O)Nc1cccc(C2CCN(CCCCC(=O)c3cccc(F)c3)CC2)c1` [Example 669]: the Ki is 42.2 nM.
On to `CC(C)C(=O)Nc1cccc(C2CCN(CCCCC(=O)c3cccc(C(F)(F)F)c3)CC2)c1` [Example 670], for which the Ki was determined as 57.6 nM.
As to `CC(C)C(=O)Nc1cccc(C2CCN(CCCCC(=O)c3ccccc3F)CC2)c1` [Example 671], the Ki came out at 88.6 nM.
As for `CC(C)C(=O)Nc1cccc(C2CCN(CCCCC(=O)c3cccc(I)c3)CC2)c1` [Example 672], the Ki is 19.7 nM.
The result for `CC(C)C(=O)Nc1cccc(C2CCN(CCCCC(=O)c3ccccc3Cl)CC2)c1` [Example 673] reads 32.5 nM; that for `CC(C)C(=O)Nc1cccc(C2CCN(CCCCC(=O)c3ccc(C(F)(F)F)cc3)CC2)c1` [Example 674], 39.6 nM.
Consider `CC(C)C(=O)Nc1cccc(C2CCN(CCCCC(=O)c3ccc(Cl)cc3)CC2)c1` [Example 675], for which the Ki was found to be 32.6 nM.
For the compound `CC(C)C(=O)Nc1cccc(C2CCN(CCCCC(=O)c3ccc(I)cc3)CC2)c1` [Example 676], the Ki came out at 21.9 nM.
For `CC(C)C(=O)Nc1cccc(C2CCN(CCCCC(=O)c3ccccc3Br)CC2)c1` [Example 677], the Ki worked out at 52.3 nM.
As for `CC(C)C(=O)Nc1cccc(C2CCN(CCCCNC(=O)c3cccnc3Oc3ccc(Cl)cc3)CC2)c1` [Example 678], the Ki turned out to be 14.7 nM.
For `COc1ccc(C(=O)NCCCCN2CCC(c3cccc(NC(=O)C(C)C)c3)CC2)cc1OC` [Example 679], the Ki came out at 97.9 nM.
Take `Cc1onc(-c2ccccc2Cl)c1C(=O)NCCCCN1CCC(c2cccc(NC(=O)C(C)C)c2)CC1` [Example 680]: the inhibition constant Ki is 28.1 nM.
Turning to `Cc1onc(-c2ccccc2Cl)c1C(=O)NCCCCCN1CCC(c2cccc(NC(=O)C(C)C)c2)CC1` [Example 681], the Ki worked out at 23.9 nM.
For the compound `CC(C)C(=O)Nc1cccc(C2CCN(CCCc3c(-c4ccc(C(F)(F)F)cc4)n(C)c4ccccc34)CC2)c1` [Example 682], the Ki stood at 7.1 nM.
For the compound `CC(C)C(=O)Nc1cccc(C2CCN(CCCc3c(-c4ccc(C(F)(F)F)cc4)[nH]c4ccc(OC(F)(F)F)cc34)CC2)c1` [Example 683], the Ki was 54.2 nM.
In the case of `CC(C)C(=O)Nc1cccc(C2CCN(CCCc3c(-c4ccc(C(F)(F)F)cc4)[nH]c4ccccc34)CC2)c1` [Example 684], the Ki worked out at 5.4 nM.
As to `CC(C)C(=O)Nc1cccc(C2CCN(CCCc3c(-c4ccc(C(F)(F)F)cc4)n(-c4ccccc4)c4ccccc34)CC2)c1` [Example 685], the Ki came to 82.4 nM.
Turning to `CC(C)C(=O)Nc1cccc(C2CCN(CCCc3c(-c4ccc(C(F)(F)F)cc4)[nH]c4c3ccc3ccccc34)CC2)c1` [Example 686, 2-METHYL-N-{3-[1-(3-(2-[4-(TRIFLUOROMETHYL)PHENYL]-1H-BENZO [G]INDOL-3-YL}PROPYL)-4-PIPERIDINYL]PHENYL}PROPANAMIDE], the Ki was determined as 33.9 nM.
Consider `Cc1cccc2c(CCCN3CCC(c4cccc(NC(=O)C(C)C)c4)CC3)c(-c3ccc(C(F)(F)F)cc3)[nH]c12` [Example 687], for which the Ki was found to be 20.6 nM.
As to `Cc1ccc2[nH]c(-c3ccc(C(F)(F)F)cc3)c(CCCN3CCC(c4cccc(NC(=O)C(C)C)c4)CC3)c2c1` [Example 688], the Ki came to 41 nM.
On to `COc1ccc2[nH]c(-c3ccc(C(F)(F)F)cc3)c(CCCN3CCC(c4cccc(NC(=O)C(C)C)c4)CC3)c2c1` [Example 689], for which the Ki was 11.3 nM.
In the case of `Cc1cccc2c(CCCN3CCC(c4cccc(NC(=O)C(C)C)c4)CC3)c(-c3cccc(F)c3)[nH]c12` [Example 690], the Ki is 5.2 nM.
For the compound `CC(C)C(=O)Nc1cccc(C2CCN(CCCc3c(-c4ccc(Cl)cc4)n(C)c4ccccc34)CC2)c1` [Example 691], the inhibitory constant (Ki) worked out at 16.3 nM.
Turning to `COc1ccc2[nH]c(-c3ccc(F)cc3)c(CCCN3CCC(c4cccc(NC(=O)C(C)C)c4)CC3)c2c1` [Example 692], the Ki is 2 nM.
For `CC(C)C(=O)Nc1cccc(C2CCN(CCCc3c(-c4ccccc4F)[nH]c4ccccc34)CC2)c1` [Example 693], the inhibitory constant (Ki) is 0.4 nM.
For `CC(C)C(=O)Nc1cccc(C2CCN(CCCc3c(-c4cccc(F)c4)[nH]c4ccc(OC(F)(F)F)cc34)CC2)c1` [Example 694], the Ki came to 6.4 nM.
With `CC(C)C(=O)Nc1cccc(C2CCN(CCCc3c(-c4ccccc4F)[nH]c4ccc(OC(F)(F)F)cc34)CC2)c1` [Example 695], the Ki was 2.1 nM.
In the case of `CC(C)C(=O)Nc1cccc(C2CCN(CCCc3c(-c4ccc(F)cc4)n(-c4ccccc4)c4ccccc34)CC2)c1` [Example 696], the Ki came to 48.3 nM.
Turning to `CC(C)C(=O)Nc1cccc(C2CCN(CCCc3c(-c4ccccc4F)[nH]c4c3ccc3ccccc34)CC2)c1` [Example 697], the inhibitory constant (Ki) was found to be 3 nM.
Take `Cc1ccc2[nH]c(-c3ccccc3F)c(CCCN3CCC(c4cccc(NC(=O)C(C)C)c4)CC3)c2c1` [Example 698]: the Ki amounted to 3 nM.
Consider `CC(C)C(=O)Nc1cccc(C2CCN(CCCc3c(-c4cccc(F)c4)[nH]c4c3ccc3ccccc34)CC2)c1` [Example 699], for which the inhibition constant Ki amounted to 5.4 nM.
Consider `CC(C)C(=O)Nc1cccc(C2CCN(CCCc3c(-c4ccc(F)cc4)n(C)c4ccccc34)CC2)c1` [Example 700], for which the Ki came to 2 nM.
Take `COc1ccc2[nH]c(-c3cccc(F)c3)c(CCCN3CCC(c4cccc(NC(=O)C(C)C)c4)CC3)c2c1` [Example 701]: the Ki is 2.5 nM.
For `CC(C)C(=O)Nc1cccc(C2CCN(CCCc3c(-c4cccc(F)c4)n(-c4ccccc4)c4ccccc34)CC2)c1` [Example 702] the value was 27 nM.
On to `CC(C)C(=O)Nc1cccc(C2CCN(CCCc3c(-c4ccc(Cl)cc4)[nH]c4ccc(OC(F)(F)F)cc34)CC2)c1` [Example 703], for which the Ki was determined as 16.6 nM.
The result for `CC(C)C(=O)Nc1cccc(C2CCN(CCCc3c(-c4cccc(F)c4)[nH]c4ccccc34)CC2)c1` [Example 704] reads 1.2 nM.
Take `CC(C)C(=O)Nc1cccc(C2CCN(CCCc3c(-c4cccc(F)c4)n(C)c4ccccc34)CC2)c1` [Example 705]: the inhibition constant Ki worked out at 8.5 nM.
As for `Cc1ccc2[nH]c(-c3cccc(F)c3)c(CCCN3CCC(c4cccc(NC(=O)C(C)C)c4)CC3)c2c1` [Example 706], the Ki was 4.2 nM.
As to `CC(C)C(=O)Nc1cccc(C2CCN(CCCc3c(-c4ccc(Cl)cc4)[nH]c4c3ccc3ccccc34)CC2)c1` [Example 707], the Ki came out at 19.6 nM.
